Data: publication PMC10065799, “High-throughput profiling of sequence recognition by tyrosine kinases and SH2 domains using bacterial peptide display” (eLife, 2023)

How the values were obtained:
EPHB2 kinase domain [1] = experiment: ADP-Quest continuous fluorimetric kinase assay (initial rates of consensus peptides); format: biochemical, human; conditions: peptide 100 μM, kinase 10–50 nM; Figure 2C
Text: A fluorescence-based assay from Eurofins (ADP Quest) was used to measure the Michaelis-Menten kinetic parameters for phosphorylation of the consensus peptides by purified tyrosine kinase domains. In this assay, ADP production as a result of kinase activity is coupled to the production of resorufin, a fluorophore that emits signal at 590 nm. For all experiments, the assay reactions were set up as described in the provided assay kit protocol, in a 384 well plate format. The peptide solutions were serially diluted in 100 mM Tris, pH 8.0, and the kinases were diluted to 50 nM in buffer (10 mM HEPES, 100 mM NaCl, 1 mM TCEP, 5 mM MgCl2, 10% (v/v) glycerol). The final reaction mixtures contained 10 nM of kinase with 100 μM of ATP. […] Phosphorylation reaction progress was monitored by measuring fluorescence at excitation 530 nm and emission 590 nm every 2 min at 37 °C on a plate reader (BioTek Synergy Neo 2). The fluorescence units (RFU) were converted to μM ADP by comparison to a standard curve, and the initial rates were extracted from the linear regime of the reaction progress curves. Initial rates were also measured for samples containing each kinase but lacking a peptide substrate, to account for background ATP hydrolysis. This background rate was subtracted from the rates measured in the presence of peptide. […]

c-Src kinase domain [2] = target: T1, c-Src kinase domain (Homo sapiens, UniProt P12931); experiment: ADP-Quest continuous fluorimetric kinase assay (Michaelis-Menten parameters and initial rates); format: biochemical; conditions: c-Src kinase domain 10 nM, 100 μM ATP, 37 °C, three to five replicates, error = standard error of global Michaelis-Menten fit
Text: (§1) A fluorescence-based assay from Eurofins (ADP Quest) was used to measure the Michaelis-Menten kinetic parameters for phosphorylation of the consensus peptides by purified tyrosine kinase domains. In this assay, ADP production as a result of kinase activity is coupled to the production of resorufin, a fluorophore that emits signal at 590 nm. For all experiments, the assay reactions were set up as described in the provided assay kit protocol, in a 384 well plate format. The peptide solutions were serially diluted in 100 mM Tris, pH 8.0, and the kinases were diluted to 50 nM in buffer (10 mM HEPES, 100 mM NaCl, 1 mM TCEP, 5 mM MgCl2, 10% (v/v) glycerol). The final reaction mixtures contained 10 nM of kinase with 100 μM of ATP. Reactions were initiated with the addition of 1 mM ATP into a 50 μL reaction mixture for a final concentration of 100 μM ATP. Phosphorylation reaction progress was monitored by measuring fluorescence at excitation 530 nm and emission 590 nm every 2 min at 37 °C on a plate reader (BioTek Synergy Neo 2). The fluorescence units (RFU) were converted to μM ADP by comparison to a standard curve, and the initial rates were extracted from the linear regime of the reaction progress curves. Initial rates were also measured for samples containing each kinase but lacking a peptide substrate, to account for background ATP hydrolysis. This background rate was subtracted from the rates measured in the presence of peptide. The subtracted rates were plotted as a function of substrate concentration and fit to the Michaelis-Menten equation to extract kcat and KM values.

c-Abl kinase domain [3] = target: T2, c-Abl kinase domain (Mus musculus, UniProt P00520); experiment: as above; format: biochemical; conditions: c-Abl kinase domain 10 nM, 100 μM ATP, 37 °C, three to five replicates, error = standard error of global Michaelis-Menten fit
T2 sequence (P00520 242-493 limits assumed): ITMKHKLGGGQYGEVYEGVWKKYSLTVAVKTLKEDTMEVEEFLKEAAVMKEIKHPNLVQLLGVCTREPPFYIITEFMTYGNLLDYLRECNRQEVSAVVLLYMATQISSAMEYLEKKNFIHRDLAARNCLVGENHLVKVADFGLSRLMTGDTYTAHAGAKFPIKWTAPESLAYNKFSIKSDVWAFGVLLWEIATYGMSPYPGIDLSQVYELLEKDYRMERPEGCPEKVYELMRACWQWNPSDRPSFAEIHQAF
Text: as §1

c-Src kinase domain [4] = target: T1, c-Src kinase domain; experiment: RP-HPLC assay to measure peptide phosphorylation kinetics; format: biochemical; conditions: purified peptide substrate
Grb2 SH2 domain = experiment: pTyr-Var library SH2 domain screen with SH2-dynabeads (enrichment scores)
c-Src kinase domain [5] = target: T1, c-Src kinase domain; experiment: pTyr-Var library bacterial peptide display kinase screen (enrichment scores); format: biochemical;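 on c-Abl hit?: Hit requires p below 0.05 and at least twofold variant vs reference change plus filters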;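 on c-Src hit?: Hit requires p below 0.05 and at least twofold variant vs reference change plus filters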;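 on screen: log2 fold change in enrichment of variant over reference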
Jak2 = experiment: as above; format: biochemical, human
Fes = experiment: as above; format: biochemical
c-Src SH2 domain = c-Src SH2 domain (Homo sapiens, UniProt P12931); experiment: pTyr-Var library SH2 domain screen with SH2-dynabeads (enrichment scores); conditions: sheet c-Src
c-Abl kinase domain [6] = target: T2, c-Abl kinase domain; experiment: pTyr-Var library bacterial peptide display kinase screen (enrichment scores); format: biochemical;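 on c-Abl hit?: Hit requires p below 0.05 and at least twofold variant vs reference change plus filters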;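 on c-Src hit?: Hit requires p below 0.05 and at least twofold variant vs reference change plus filters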;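 on screen: log2 fold change in enrichment of variant over reference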
MERTK kinase domain = experiment: as above; format: biochemical, human
Fyn kinase domain = experiment: as above; format: biochemical, human
FGFR1 kinase domain = experiment: as above; format: biochemical, human
FGFR3 kinase domain = experiment: as above; format: biochemical, human
Fer kinase domain = experiment: as above; format: biochemical, mouse
[7] = tested on: 4G10 Platinum pan-phosphotyrosine antibody; experiment: Phosphorylated pTyr-Var library selection with biotinylated pan-phosphotyrosine antibody; format: binding, mouse; conditions: enrichment score, sheet SH2-vs-peptide
EPHB1 kinase domain = experiment: pTyr-Var library bacterial peptide display kinase screen (enrichment scores); format: biochemical, human;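 on screen: log2 fold change in enrichment of variant over reference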
SHP2 C-SH2 domain = experiment: pTyr-Var library SH2 domain screen with SH2-dynabeads (enrichment scores)
AncSZ kinase domain = experiment: pTyr-Var library bacterial peptide display kinase screen (enrichment scores); format: biochemical
Hck kinase domain = experiment: as above; format: biochemical, human
EPHB2 kinase domain [8] = experiment: as above; format: biochemical, human
[9] = mean of log2 of enrichment over R1-R4
[10] = pTyr-Var library, enrichment score, replicate 1
[11] = pTyr-Var library, enrichment score, replicate 3
[12] = pTyr-Var library, enrichment score, replicate 4
[13] = variant versus reference peptide
[14] = variant versus reference peptide, significant hit TRUE/FALSE
[15] = mean of log2(variant) minus mean of log2(reference)
[16] = mean of log2 enrichment of variant peptide, n = 4
[17] = pTyr-Var library, variant peptide enrichment, mean of n = 4
[18] = mean of log2 enrichment of variant peptide, n = 5
[19] = pTyr-Var library, variant peptide enrichment, mean of n = 5

Ac-GPDEPIYAVPPIKKKG-NH2 [Abl Consensus, c-Abl consensus substrate peptide from X5-Y-X5 screen]
phosphorylation of consensus peptide by EPHB2 (initial rate relative to cognate consensus) (EPHB2 kinase domain [1]): efficiently phosphorylated | Km (c-Src kinase domain [2]): 159 ± 31 µM | kcat (c-Src kinase domain [2]): 2.0±0.2 s^–1 | Km (c-Abl kinase domain [3]): 6 ± 2 µM | kcat (c-Abl kinase domain [3]): 3.0±0.2 s^–1

Ac-VASSLYDILAR-NH2 [GLB1_Y294]
Phosphorylation Rate (c-Src kinase domain [4]): 0.892 s⁻¹

LHVGFYESDVM [A2M_Y708_R704H]
difference (Grb2 SH2 domain; Grb2 SH2, mean of log2(variant) minus mean of log2(reference)): 0.0213 | mean of log2(variant) (Grb2 SH2 domain; Grb2 SH2, mean of log2 enrichment of variant, R1-R3): -0.08185 | hit? (Grb2 SH2 domain; Grb2 SH2, variant versus reference significant hit call): FALSE | var. mean (Grb2 SH2 domain; variant peptide enrichment score, Grb2 SH2, mean of R1-R3): 0.9505 | c-Src mean of log2(enrichment) (c-Src kinase domain [5]; [9]): -0.6428 | c-Src enrich. R1 (c-Src kinase domain [5]; [10]): 0.8102 | c-Src enrich. R3 (c-Src kinase domain [5]; [11]): 0.4328 | c-Src enrich. R4 (c-Src kinase domain [5]; [12]): 0.9633 | c-Src difference (mean log2 variant - mean log2 reference) (c-Src kinase domain [5]; [13]): -1.034 | c-Src hit? (c-Src kinase domain [5]; [14]): FALSE | Jak2 mean of log2(enrichment) (Jak2; mean of log2 of enrichment over R1-R3): 0.3892 | Jak2 enrich. R1 (Jak2; [10]): 1.336 | Jak2 enrich. R3 (Jak2; [11]): 1.016 | Jak2 difference (mean log2 variant - mean log2 reference) (Jak2; [13]): -0.5933 | Jak2 hit? (Jak2; [14]): FALSE | Fes mean of log2(enrichment) (Fes; mean of log2 of enrichment over R1-R6): 0.6236 | Fes difference (mean log2 variant - mean log2 reference) (Fes; [13]): -0.8632 | difference (c-Src SH2 domain; [15]): 0.05278 | mean of log2(variant) (c-Src SH2 domain; mean of log2 enrichment of variant peptide, R1-R3): 2.054 | var. mean (c-Src SH2 domain; variant peptide, mean of R1-R3): 4.231 | Screen (c-Abl kinase domain [6]; fig5-data2, sheet "Abl", Screen for the variant/reference peptide pair, pTyr-Var library): -1.318 | c-Abl mean of log2(enrichment) (c-Abl kinase domain [6]; [9]): -0.4279 | c-Abl enrich. R1 (c-Abl kinase domain [6]; [10]): 0.51 | c-Abl enrich. R3 (c-Abl kinase domain [6]; [11]): 0.9195 | c-Abl enrich. R4 (c-Abl kinase domain [6]; [12]): 0.7727 | c-Abl hit? (c-Abl kinase domain [6]; [14]): FALSE | difference (MERTK kinase domain; [15]): -1.201 | mean of log2(variant) (MERTK kinase domain; [16]): 0.1586 | var. mean (MERTK kinase domain; [17]): 1.154 | Fyn mean of log2(enrichment) (Fyn kinase domain; [9]): -0.6247 | Fyn enrich. R1 (Fyn kinase domain; [10]): 1.119 | Fyn enrich. R3 (Fyn kinase domain; [11]): 0.683 | Fyn enrich. R4 (Fyn kinase domain; [12]): 0.4956 | Fyn difference (mean log2 variant - mean log2 reference) (Fyn kinase domain; [13]): -0.4761 | Fyn hit? (Fyn kinase domain; [14]): FALSE | difference (FGFR1 kinase domain; [15]): -0.559 | mean of log2(variant) (FGFR1 kinase domain; [18]): -0.3446 | var. mean (FGFR1 kinase domain; [19]): 0.8886 | difference (FGFR3 kinase domain; [15]): -1.255 | mean of log2(variant) (FGFR3 kinase domain; [18]): 0.01497 | var. mean (FGFR3 kinase domain; [19]): 1.21 | Fer mean of log2(enrichment) (Fer kinase domain; [9]): 0.8907 | Fer enrich. R1 (Fer kinase domain; [10]): 2.223 | Fer enrich. R3 (Fer kinase domain; [11]): 2.063 | Fer enrich. R4 (Fer kinase domain; [12]): 1.22 | Screen (Fer kinase domain; sheet "Fer", value of the variant peptide against its reference peptide in the pTyr-Var library screen with Fer): 0.2498 | Fer difference (mean log2 variant - mean log2 reference) (Fer kinase domain; [13]): 0.2498 | Fer hit? (Fer kinase domain; [14]): FALSE | 4G10 (mean) [7]: 1.221 | difference (EPHB1 kinase domain; [15]): -0.4797 | mean of log2(variant) (EPHB1 kinase domain; [16]): 0.4103 | var. mean (EPHB1 kinase domain; [17]): 1.406 | Screen (EPHB1 kinase domain; sheet EPHB1, effect of the variant peptide relative to its reference peptide in the pTyr-Var library screen (enrichment scores)): -0.4797 | difference (SHP2 C-SH2 domain; SHP2-C SH2, mean of log2(variant) minus mean of log2(reference)): -0.5777 | mean of log2(variant) (SHP2 C-SH2 domain; SHP2-C SH2, mean of log2 enrichment of variant, R1-R3): -0.5659 | hit? (SHP2 C-SH2 domain; SHP2-C SH2, variant versus reference significant hit call): FALSE | var. mean (SHP2 C-SH2 domain; variant peptide enrichment score, SHP2-C SH2, mean of R1-R3): 0.7213 | AncSZ mean of log2(enrichment) (AncSZ kinase domain; mean of log2 of enrichment over R1-R5): 0.1983 | AncSZ enrich. R1 (AncSZ kinase domain; [10]): 0.795 | AncSZ enrich. R3 (AncSZ kinase domain; [11]): 1.048 | AncSZ enrich. R4 (AncSZ kinase domain; [12]): 1.095 | AncSZ enrich. R5 (AncSZ kinase domain; pTyr-Var library, enrichment score, replicate 5): 1.306 | AncSZ difference (mean log2 variant - mean log2 reference) (AncSZ kinase domain; [13]): -1.317 | AncSZ hit? (AncSZ kinase domain; [14]): FALSE | Hck enrich. R1 (Hck kinase domain; [10]): 0.9181 | Hck enrich. R3 (Hck kinase domain; [11]): 0.8034 | Hck enrich. R4 (Hck kinase domain; [12]): 0.2649 | Hck hit? (Hck kinase domain; [14]): FALSE | difference (EPHB2 kinase domain [8]; [15]): 0.5535 | mean of log2(variant) (EPHB2 kinase domain [8]; [16]): 0.1669 | var. mean (EPHB2 kinase domain [8]; [17]): 1.142
